Measurements from paper PMC5927803 (Pharmacology Research & Perspectives, 2018).
Several values for one entry are separate records, joined by “and”; a condition that tells them apart may be missing. Equal entries are not always repeated. Where two headings read alike, the source gives them in different places.

How the values were obtained:
cM5 mAChR = molecular target: T1, cM5 mAChR (Pan troglodytes, UniProt Q5IS53); experiment: Inhibition of agonist-stimulated calcium mobilization; assay type: cell-based, chimpanzee
T1 sequence (Q5IS53 1-532): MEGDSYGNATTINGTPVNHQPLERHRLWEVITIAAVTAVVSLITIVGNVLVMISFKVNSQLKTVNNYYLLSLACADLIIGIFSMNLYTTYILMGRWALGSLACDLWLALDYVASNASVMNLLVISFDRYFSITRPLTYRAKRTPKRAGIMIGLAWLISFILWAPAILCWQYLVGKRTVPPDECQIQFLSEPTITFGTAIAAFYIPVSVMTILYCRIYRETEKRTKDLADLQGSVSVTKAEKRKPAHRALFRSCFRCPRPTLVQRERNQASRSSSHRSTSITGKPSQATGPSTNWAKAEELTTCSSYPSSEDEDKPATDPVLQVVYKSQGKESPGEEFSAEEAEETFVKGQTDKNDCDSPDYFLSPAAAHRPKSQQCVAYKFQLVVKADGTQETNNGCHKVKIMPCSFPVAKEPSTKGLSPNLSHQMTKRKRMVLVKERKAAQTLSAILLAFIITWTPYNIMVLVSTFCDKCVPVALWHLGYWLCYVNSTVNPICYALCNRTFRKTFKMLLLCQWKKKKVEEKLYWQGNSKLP

[1] = test system: rat isolated tracheal tissue; experiment: Antagonism of ACh-evoked contraction: potency and offset time
hM2 mAChR [2] = molecular target: T2, hM2 mAChR (Homo sapiens, UniProt P08172); conditions: cited from earlier work
T2 sequence (P08172 1-466): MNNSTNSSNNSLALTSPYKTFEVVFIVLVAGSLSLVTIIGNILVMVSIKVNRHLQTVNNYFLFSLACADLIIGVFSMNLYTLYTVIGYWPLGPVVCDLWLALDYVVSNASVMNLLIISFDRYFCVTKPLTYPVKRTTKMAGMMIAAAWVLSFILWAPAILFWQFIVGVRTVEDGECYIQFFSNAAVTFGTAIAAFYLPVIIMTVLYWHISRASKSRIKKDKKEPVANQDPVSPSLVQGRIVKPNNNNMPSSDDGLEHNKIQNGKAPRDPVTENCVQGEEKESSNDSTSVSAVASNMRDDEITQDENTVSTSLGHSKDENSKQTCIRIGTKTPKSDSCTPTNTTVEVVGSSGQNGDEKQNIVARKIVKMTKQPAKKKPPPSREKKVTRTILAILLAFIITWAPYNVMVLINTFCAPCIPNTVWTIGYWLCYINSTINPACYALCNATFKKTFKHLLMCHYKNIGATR

[3] = test system: human isolated bronchial tissue; conditions: human bronchus, carbachol; cited from earlier work
hM3 mAChR [4] = molecular target: T3, hM3 mAChR (Homo sapiens, UniProt P20309); conditions: cited from earlier work
hM1 mAChR [5] = molecular target: T4, hM1 mAChR (Homo sapiens, UniProt P11229); experiment: Competition radioligand binding, [^3H]NMS
T4 sequence (P11229 1-460): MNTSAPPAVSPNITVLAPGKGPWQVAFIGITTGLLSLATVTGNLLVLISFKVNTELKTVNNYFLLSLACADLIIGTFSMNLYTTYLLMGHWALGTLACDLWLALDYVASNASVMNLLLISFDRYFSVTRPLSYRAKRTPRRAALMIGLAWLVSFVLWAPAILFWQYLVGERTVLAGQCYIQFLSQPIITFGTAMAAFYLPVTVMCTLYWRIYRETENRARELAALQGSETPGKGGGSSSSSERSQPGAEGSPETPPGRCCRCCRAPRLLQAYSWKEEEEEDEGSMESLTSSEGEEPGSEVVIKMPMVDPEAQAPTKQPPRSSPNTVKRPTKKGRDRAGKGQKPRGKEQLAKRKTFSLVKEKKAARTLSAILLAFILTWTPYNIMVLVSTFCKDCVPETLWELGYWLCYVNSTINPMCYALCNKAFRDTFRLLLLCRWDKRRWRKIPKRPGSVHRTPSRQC

Guinea Pig H1 (central) = Guinea Pig H1 (central) (Cavia porcellus, UniProt P31389); experiment: Off-target panel radioligand binding; conditions: read-out: % Inhibition Specific Binding (1 µM)
hM1 mAChR [6] = molecular target: T4, hM1 mAChR; experiment: Inhibition of agonist-stimulated calcium mobilization; assay type: cell-based
hM3 mAChR [7] = molecular target: T3, hM3 mAChR; experiment: Association and dissociation binding kinetics
hM3 mAChR [8] = molecular target: T3, hM3 mAChR; experiment: Reversibility of antagonism of ACh-induced calcium mobilization, CHO-K1 cells; assay type: cell-based
histamine H1 receptor = histamine H1 receptor (Cavia porcellus, UniProt P31389); experiment: H1 radioligand binding, concentration-response; conditions: selectivity hM3 over H1
[9] = test system: bronchoconstrictor response to ACh or methacholine (MCh); conditions: rats, inhalation dosing; cited from earlier work
[10] = test system: panel of 81 receptors, enzymes, and channels; experiment: Off-target panel screen; assay type: binding; conditions: 1 μmol L^−1
hM3 mAChR [11] = molecular target: T3, hM3 mAChR; experiment: Competition radioligand binding, [^3H]NMS; conditions: hM3 pKI, [^3H]NMS competition, CHO-K1 membranes, 37°C; mean ± SD
[12] = test system: guinea pig isolated trachea; experiment: Inhibition of EFS contraction: potency and offset time; conditions: IC90 concentration, washout
hM5 mAChR [13] = molecular target: T5, hM5 mAChR (Homo sapiens, UniProt P08912); experiment: Saturation radioligand binding
T5 sequence (P08912 1-532): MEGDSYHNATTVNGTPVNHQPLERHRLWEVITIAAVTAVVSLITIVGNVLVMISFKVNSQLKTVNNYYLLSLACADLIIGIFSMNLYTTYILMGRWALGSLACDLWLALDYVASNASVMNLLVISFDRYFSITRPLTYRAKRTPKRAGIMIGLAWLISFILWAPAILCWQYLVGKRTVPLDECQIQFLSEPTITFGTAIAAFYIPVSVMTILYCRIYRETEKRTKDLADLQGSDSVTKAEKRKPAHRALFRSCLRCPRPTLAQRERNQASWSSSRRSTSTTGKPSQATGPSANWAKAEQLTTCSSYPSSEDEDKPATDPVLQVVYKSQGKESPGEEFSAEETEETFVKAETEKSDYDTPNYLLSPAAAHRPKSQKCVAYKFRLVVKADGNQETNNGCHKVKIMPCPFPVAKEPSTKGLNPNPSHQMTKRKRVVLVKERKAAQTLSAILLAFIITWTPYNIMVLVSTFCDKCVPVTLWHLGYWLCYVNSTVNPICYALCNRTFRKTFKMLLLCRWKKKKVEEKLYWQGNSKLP

hM4 mAChR [14] = molecular target: T6, hM4 mAChR (Homo sapiens, UniProt P08173); experiment: Competition radioligand binding, [^3H]NMS
T6 sequence (P08173 1-479): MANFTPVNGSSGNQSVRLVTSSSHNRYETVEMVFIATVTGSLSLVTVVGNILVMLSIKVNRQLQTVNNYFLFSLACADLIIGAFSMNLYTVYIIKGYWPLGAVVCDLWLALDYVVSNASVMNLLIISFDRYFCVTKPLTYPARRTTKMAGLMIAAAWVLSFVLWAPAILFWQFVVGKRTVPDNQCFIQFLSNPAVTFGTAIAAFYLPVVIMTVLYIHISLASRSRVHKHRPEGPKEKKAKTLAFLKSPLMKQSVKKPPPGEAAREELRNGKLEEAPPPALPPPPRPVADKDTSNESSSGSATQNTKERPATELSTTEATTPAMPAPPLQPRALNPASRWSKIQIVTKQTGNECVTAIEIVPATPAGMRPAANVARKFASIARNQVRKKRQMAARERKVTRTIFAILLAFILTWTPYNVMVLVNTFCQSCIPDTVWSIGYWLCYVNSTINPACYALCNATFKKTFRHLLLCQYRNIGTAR

hM4 mAChR [15] = molecular target: T6, hM4 mAChR; experiment: Saturation radioligand binding
hM3 mAChR [16] = molecular target: T3, hM3 mAChR; experiment: Saturation radioligand binding
hM3 mAChR [17] = molecular target: T3, hM3 mAChR; experiment: Inhibition of agonist-stimulated calcium mobilization; assay type: cell-based
[18] = molecular target: cloned human 5‐HT4(C) receptors (Homo sapiens, UniProt Q13639); experiment: 5-HT4 agonist assay; assay type: cell-based
hM1 mAChR [19] = molecular target: T4, hM1 mAChR; experiment: Saturation radioligand binding
hM5 mAChR [20] = molecular target: T5, hM5 mAChR; experiment: Competition radioligand binding, [^3H]NMS
hM2 mAChR [21] = molecular target: T2, hM2 mAChR; experiment: Association and dissociation binding kinetics; conditions: 37°C
[22] = test system: bronchoconstrictor response to ACh or methacholine (MCh); conditions: dogs, inhalation dosing; cited from earlier work
[23] = test system: human isolated bronchial tissue; experiment: Antagonism of carbachol-evoked contraction: potency and offset time; conditions: superfusion washout, 10‐100 nmol·L^−1, 1 μmol L^−1 CCh, 10 hours perfusion
hM4‐Gα16 mAChR = molecular target: T7, hM4‐Gα16 mAChR (Homo sapiens, UniProt P08173); experiment: Inhibition of agonist-stimulated calcium mobilization; assay type: cell-based
T7 sequence (P08173 1-479): T6 sequence (P08173 1-479)

COPD patients = conditions: nebulized, once‐daily dosing; cited from earlier work
hM2 mAChR [24] = molecular target: T2, hM2 mAChR; experiment: Inhibition of agonist-stimulated [^35S]GTPγS binding, CHO-K1 membranes; assay type: biochemical; conditions: absence of agonist
[25] = tested alone in cells expressing mAChRs

T3 sequence (P20309 whole entry): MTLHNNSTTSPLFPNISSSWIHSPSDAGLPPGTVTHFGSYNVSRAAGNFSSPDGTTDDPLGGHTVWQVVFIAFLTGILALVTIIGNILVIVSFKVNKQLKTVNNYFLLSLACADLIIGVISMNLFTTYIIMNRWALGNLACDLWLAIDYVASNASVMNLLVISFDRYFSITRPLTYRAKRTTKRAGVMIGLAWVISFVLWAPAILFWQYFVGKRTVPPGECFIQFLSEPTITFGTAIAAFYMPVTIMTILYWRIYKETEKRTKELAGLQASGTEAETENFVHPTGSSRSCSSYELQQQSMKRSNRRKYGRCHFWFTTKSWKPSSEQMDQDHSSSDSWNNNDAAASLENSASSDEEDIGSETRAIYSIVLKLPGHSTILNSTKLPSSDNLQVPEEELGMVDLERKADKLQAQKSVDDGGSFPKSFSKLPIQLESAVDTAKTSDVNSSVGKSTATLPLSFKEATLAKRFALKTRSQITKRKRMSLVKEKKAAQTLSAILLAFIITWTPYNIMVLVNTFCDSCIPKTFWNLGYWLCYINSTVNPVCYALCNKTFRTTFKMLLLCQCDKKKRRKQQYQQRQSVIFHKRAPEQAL
Chain of cloned human 5‐HT4(C) receptors (Q13639 1-380 isoform Q13639-4): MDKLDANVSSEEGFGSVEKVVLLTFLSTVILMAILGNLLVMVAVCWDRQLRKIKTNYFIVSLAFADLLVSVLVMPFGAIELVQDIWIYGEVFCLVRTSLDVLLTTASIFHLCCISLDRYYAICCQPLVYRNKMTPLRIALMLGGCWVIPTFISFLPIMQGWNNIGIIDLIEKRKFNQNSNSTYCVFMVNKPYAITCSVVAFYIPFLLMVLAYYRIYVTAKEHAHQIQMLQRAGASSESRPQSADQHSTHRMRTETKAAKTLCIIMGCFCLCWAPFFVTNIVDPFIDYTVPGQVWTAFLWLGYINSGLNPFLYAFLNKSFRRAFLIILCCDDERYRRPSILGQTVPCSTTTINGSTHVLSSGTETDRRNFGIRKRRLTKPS
Chain of histamine H1 receptor (P31389 whole entry): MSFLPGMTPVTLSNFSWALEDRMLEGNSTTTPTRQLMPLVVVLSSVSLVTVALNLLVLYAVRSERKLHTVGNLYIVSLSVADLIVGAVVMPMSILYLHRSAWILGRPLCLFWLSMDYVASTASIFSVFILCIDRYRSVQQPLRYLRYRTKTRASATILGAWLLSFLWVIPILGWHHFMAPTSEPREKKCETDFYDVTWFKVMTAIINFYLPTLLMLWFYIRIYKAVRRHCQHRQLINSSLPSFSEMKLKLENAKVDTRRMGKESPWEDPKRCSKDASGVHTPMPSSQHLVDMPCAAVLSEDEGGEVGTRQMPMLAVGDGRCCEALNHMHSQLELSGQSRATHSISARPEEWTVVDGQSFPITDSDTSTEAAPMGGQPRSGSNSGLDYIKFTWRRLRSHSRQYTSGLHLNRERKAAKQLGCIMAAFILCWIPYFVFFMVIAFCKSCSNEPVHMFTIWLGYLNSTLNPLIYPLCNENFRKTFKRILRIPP
Chain of Guinea Pig H1 (central) (P31389 whole entry): as above

CC(C)[N+]1(C)[C@@H]2CC[C@H]1C[C@@H](OC(=O)C(CO)c1ccccc1)C2 (stereo partly drawn) [Ipratropium, reference compound]
Ki (cM5 mAChR): 0.191 nM | pA2 ([1]; ACh contraction, surmountable antagonist): 9.2 ± 0.1 | dissociation from hM2 receptors (hM2 mAChR [2]): dissociate rapidly | nature of antagonism [3]: surmountable antagonism | dissociation from hM3 receptors (hM3 mAChR [4]): dissociate rapidly

CN(CCN1CCC(OC(=O)Nc2ccccc2-c2ccccc2)CC1)C(=O)c1ccc(CN2CCC(C(N)=O)CC2)cc1 [Revefenacin, biphenyl‐2‐ylcarbamic acid 1‐(2‐{[4‐(4‐carbamoylpiperidin‐1‐ylmethyl)benzoyl]methylamino}ethyl)piperidin‐4‐yl ester]
Ki (cM5 mAChR): 0.363 nM | Ca^2+ response when tested alone (agonist activity), cM5 (cM5 mAChR; [25]): no Ca^2+ response | Ki (hM1 mAChR [5]): 0.417 nM | inhibition at 1 µM (Guinea Pig H1 (central)): 87% | Ki (hM1 mAChR [6]): 0.126 nM | Ca^2+ response when tested alone (agonist activity), hM1 (hM1 mAChR [6]; [25]): no Ca^2+ response | Kd (hM3 mAChR [7]): 0.0933 nM | hM3 dissociation t 1/2 shorter than that of tiotropium (hM3 mAChR [7]): 2.8 fold | dissociation t 1/2 M3 (hM3 mAChR [7]; 37°C): 1.37 h | offset t 1/2 ([1]; IC90 concentration, washout, time for response to recover by 50%): 13.3 h | potency lower than that of tiotropium ([1]; from pKB): 4 fold | potency greater than that of ipratropium ([1]; pKB vs pA2): 20 fold | Kb (hM3 mAChR [8]): 0.0933 nM | potency at histamine H1 receptor lower than Ki at the hM3 receptor (histamine H1 receptor): > 2700 fold | duration of bronchoprotective effect [9]: ≥ 24 h | activity at a majority of the targets [10]: < 75% | Ki (hM3 mAChR [11]): 0.2 nM and 0.178 nM | offset t 1/2 [12]: > 16 h | Kd (hM5 mAChR [13]): 4.2 nM | Ki (hM4 mAChR [14]; hM4 KI, [^3H]NMS competition, from IC50 by Cheng and Prusoff): 0.56 nM | Ki (hM4 mAChR [14]; hM4 pKI, [^3H]NMS competition, CHO-K1 membranes, 37°C, mean ± SD): 0.55 nM | Kd (hM4 mAChR [15]): 0.46 nM | Kd (hM3 mAChR [16]): 0.39 nM | Ki (hM3 mAChR [17]): 0.0955 nM | Ca^2+ response when tested alone (agonist activity), hM3 (hM3 mAChR [17]; [25]): no Ca^2+ response | EC50 [18]: 257 nM | potency at 5‐HT4 receptor lower than Ki at the hM3 receptor ([18]; selectivity hM3 over 5-HT4): > 1400 fold | Kd (hM1 mAChR [19]): 1 nM | Ki (hM5 mAChR [20]; hM5 KI, [^3H]NMS competition, from IC50 by Cheng and Prusoff): 6.7 nM | Ki (hM5 mAChR [20]; hM5 pKI, [^3H]NMS competition, CHO-K1 membranes, 37°C, mean ± SD): 6.31 nM | dissociation t 1/2 M2 (hM2 mAChR [21]): 6.9 min | duration of bronchoprotective effect [22]: ≥ 24 h | offset t 1/2 [23]: > 10 h | Ki (hM4‐Gα16 mAChR): 0.0112 nM | Ca^2+ response when tested alone (agonist activity), hM4‐Gα16 (hM4‐Gα16 mAChR; [25]): no Ca^2+ response | duration of bronchodilation (COPD patients): 24 h | stimulation of [^35S]GTPγS binding at hM2 (agonist activity) (hM2 mAChR [24]): did not stimulate

C[N+]1(C)[C@@H]2C[C@@H](OC(=O)C(O)(c3cccs3)c3cccs3)C[C@H]1[C@@H]1O[C@@H]12 [Tiotropium, reference compound]
Ki (cM5 mAChR): 0.105 nM | nature of antagonism [3]: potent insurmountable antagonist | offset t 1/2 [12]: > 20 h | Ki (hM4 mAChR [14]): 0.0204 nM | Ki (hM5 mAChR [20]): 0.0813 nM | Ki (hM4‐Gα16 mAChR): 0.0617 nM
